In test [1] the test system is colocalization of Mdm2 with PSD-95. The test can be described thus: Colocalization of Mdm2 with PSD-95 puncta in cultured hippocampal neurons (immunocytochemistry). It counts as cell-based, rat. The settings on record: roscovitine 10 μM, 45 min; control 100%±24.8%; n=4; mean±SEM. The protocol:
Representative confocal images from each condition are shown; Mdm2 (green) and PSD-95 (red) (scale bars, 10 μm). […] The number of costained puncta, as a percentage of total PSD-95 puncta, are expressed as a percentage of the number for DMSO controls.
(§1) Dissociated hippocampal cultures were prepared from E17-E18 rat brains as described previously (Zhang et al., 2008). Hippocampal neurons were plated on coverslips coated with poly-D-lysine and laminin at a density of 6600/cm2 and grown in Neurobasal medium supplemented with B27 and GlutaMax (Invitrogen) for 17-21 days in vitro (DIV). […] Images from each experiment were thresholded using identical values and analyzed by MetaMorph software. The colocalization was expressed as mean±S.E.M. and statistically compared using Student's t-test.
Mdm2 has been identified as the ubiquitin ligase for PSD-95 in ubiquitination assays and in transfected Mdm2 knockout mouse embryonic fibroblasts (Colledge et al., 2003). […] To investigate whether Cdk5 regulates the interaction between Mdm2 and PSD-95, PSD-95 immunoprecipitated from brain lysates was analyzed in p35 knockout mice and wild-type littermates by immunoblotting with an Mdm2 antibody (FIG. 2A). […]

Test [2] has as its system PSD-95 protein levels. Description: PSD-95 protein levels in acute forebrain slices (immunoblot, normalized to actin). It counts as cell-based, mouse. As to conditions: roscovitine 10 μM, 45 min; control 100%±15.8%; n=3; p>0.5. The procedure:
PSD-95 immunoreactivity was normalized to that of actin and expressed as a percentage of DMSO control.
Brains of adult p35 knockout mice and control littermates were gifts of Dr. Li-Huei Tsai (MIT). Brain lysates were prepared according to Zhang et al., (2008). Briefly, brains (without cerebellum) were first homogenized and lysed in 1% deoxycholate (DOC) lysis buffer (150 mM NaCl, 1% DOC, 50 mM Tris, pH 8.8), to which an equal volume of modified radioimmunoprecipitation assay (RIPA) buffer was added (150 mM NaCl, 1 mM ethylenediaminetetraacetic acid (EDTA), 1% Triton X-100, 0.1% SDS, 50 mM Tris/HCl pH 7.4) (Kalia et al., 2006). […] Protein concentrations of the lysates were determined by Detergent Compatible Protein Assay (Bio-Rad) and lysates (inputs) were analyzed by western blot to determine whether similar amounts of proteins were used in the experiments. […] Western blots were visualized by enhanced chemiluminescence (ECL, Amersham) and immunoreactive bands were digitally scanned and quantified with ImageJ software (NIH). Values were expressed as mean±S.E.M. and statistically compared using Student's t-test.
Acute forebrain slices were prepared as previously described (Patel et al., 2003; Zhang et al., 2008). […] Values were expressed as mean±S.E.M. and statistically compared using analysis of variance (ANOVA). […]

Test [3] has as its system PSD-95 ubiquitination. The test can be described thus: PSD-95 ubiquitination in acute forebrain slices (PSD-95 immunoprecipitation, ubiquitin/FK1/FK2 immunoblot). Format: cell-based, mouse. As to conditions: roscovitine 10 μM, 45 min, acute mouse forebrain slices. For orientation: A western blot detects proteins with antibodies after separation by electrophoresis.
The subject of test [4] is colocalization of β-adaptin with PSD-95. Description: Colocalization of β-adaptin with PSD-95 puncta in cultured hippocampal neurons. Format: cell-based, rat. The settings on record: roscovitine 10 μM, 45 min; control 100%±15.6%; n=5; mean±SEM. The protocol:
C. […] Representative confocal images from each condition are shown; β-adaptin and PSD-95 (scale bars, 10 μm). […] The number of costained puncta, as a percentage of total number of PSD-95 puncta, is expressed as a percentage of the number for DMSO control.
as §1
To assess whether PSD-95 monoubiquitination correlates with increased PSD-95 interaction with AP-2 in vivo, p35 knockout mice were analyzed, which have increased PSD-95 monoubiquitination. PSD-95 immunoprecipitated from brain lysates of p35 knockout and wildtype littermates was analyzed by β-adaptin immunoblot (FIG. 4B).

For the compound `CC[C@H](CO)Nc1nc(NCc2ccccc2)c2ncn(C(C)C)c2n1` [roscovitine], the “puncta positive for both PSD-95 and Mdm2 (percentage of DMSO control)” value in test [1] is 149%±27.4%. In test [2], the “PSD-95 protein levels (normalized to actin, percentage of DMSO control)” value is recorded as 103.7%±18.7%. Besides, in test [3], the “increase in PSD-95 ubiquitination” value is given as “more than 2 fold” and the “kind of PSD-95 ubiquitination (FK2 immunoreactive, FK1 not)” value is on record as “increases PSD-95 monoubiquitination on multiple lysines”. Moreover, in test [3] (control 100%±54.5%, n=4, mean±SEM), the “ubiquitination of PSD-95 (ubiquitin immunoreactivity normalized to immunoprecipitated PSD-95, percentage of DMSO control)” value is on record as 274.6%±71.6%. Also, the “puncta positive for both PSD-95 and β-adaptin (percentage of DMSO control)” value in test [4] is given as 192.5%±19%.
